# pIC50: −log10 of the molar value.
# Assays:
# MM1S cells [1] = experiment: Combination with antimyeloma agents, MTT assay, Chou Talalay combination index; format: cell-based, human; settings: 72 hours; for combination index (CI): Chou and Talalay method
# Procedure: FIG. 5. PM00104 potentiates the antimyeloma action of conventional and novel antimyeloma agents. MM1S cells were treated with suboptimal concentrations of PM00104 (Zalypsis, Z) and other antimyeloma agents such as Dexamethasone (Dex), melphalan (Mel), doxorubicin (Dox), bortezomib (Bort) and lenalidomide (Len) in double (FIG. 5A) and triple combinations (FIG. 5B). Cell viability was analyzed by MTT assay.
# MM1S cells were treated for 72 hours, as described in example 1, with combinations of suboptimal doses of PM00104 and other antimyeloma agents such as dexamethasone, melphalan, doxorubicin, bortezomib and lenalidomide, in double and triple combinations. Cell viability was analyzed by MTT assay as described in example 1. The potency of the combination was quantified with the Calcusyn software (Biosoft, Ferguson, Mo.), which is based in the Chou Talalay method, that calculates a combination index (CI) with the following interpretation: CI>1: antagonistic effect, CI=1: additivity and CI<1 synergistic effect.
# [2] = tested on: myelomatous plasma cells from bone marrow samples of MM patients; experiment: Ex vivo apoptosis (Annexin V) in bone marrow cells from MM patients; format: cell-based, human; settings: 1-50 nM, 18 hours
# Procedure: FIG. 2. Freshly isolated bone marrow cells obtained from six MM patients were treated ex vivo with PM00104 (1-50 nM) for 18 hours. After the incubation period, cells were stained with the combination of Annexin V-FITC, and three monoclonal antibodies against plasma cell surface antigens (CD38, CD56 and CD45) which allow the analysis of the induction of apoptosis in the myelomatous population. Results are given as the percentage of Annexin V positive cells related to the percentage of viable cells in the untreated sample.
# Additionally, the effect of PM00104 was further investigated ex vivo in cells isolated from bone marrow (BM) samples obtained from six patients with MM. Samples were lysed with ammonium chloride in order to remove red blood cells, and white cells were maintained in RPMI-1640 containing antibiotics (penicillin 100 U/ml, streptomycin 100 μg/ml) and 20% FBS. […] A total of 50,000 cells were acquired on a FACScalibur flow cytometer (BD Biosciences) and analyzed with the “Paint-a-Gate” program. Apoptosis was analyzed based on the Annexin-V positivity in the different populations: tumour PCs as well as in normal residual lymphocytes and granulo-monocytes. The percentage of Annexin V positive cells after treatment with PM00104 was calculated over the Annexin V negative cells (viable cells) in the control samples (without treatment).
# MM144 = experiment: MTT viability assay, MM cell line panel; format: cell-based
# Procedure: (§1) Antitumor activity of PM00104 in MM was evaluated by using a cell line panel comprising the following 9 MM cell lines: MM1S, MM1R, MM144, RPMI8226, RPMI-LR5, U266, U266-LR7, OPM-1, and OPM-2. These cell lines were grown in RPMI 1640 medium with L-glutamine supplemented with antibiotics (penicillin at 100 U/mL, streptomycin at 100 μg/mL) and 10% fetal bovine serum (FBS) at 37° C. in a humidified atmosphere in the presence of 5% CO2-95% air.
# (§2) Cell lines were treated with increasing concentrations of the PM00104 (0.1-50 nM) for 24, 48 and 72 hours, and viability was analyzed by using 3-(4,5-dimethylthiazol-2-yl)-2,5-diphenyltetrazolium bromide (MTT) colorimetric assay. Briefly, MM cell lines were seeded at a density of 50,000 cells/200 […] medium per well in 48-well plates, and treated with a determined drug dose and time. Two hours before the end of the treatment, a MTT solution (5 mg/mL) in PBS) was added and the tetrazolium salt was reduced by metabolically active cells to coloured formazan crystals. After solubilization of these crystals by overnight incubation with 10% SDS-HCl solution, absorbance was measured at 570 nm with correction at 630 nm. Results are presented as the mean±SD of quadruplicates of an experiment that was repeated at least twice.
# U266-LR7 = experiment: MTT viability assay, MM cell line panel; format: cell-based; settings: U266-LR7 (melphalan resistant), 48 hours
# Procedure: as §1, §2
# MM1R = experiment: MTT viability assay, MM cell line panel; format: cell-based
# Procedure: as §1, §2
# RPMI-LR5 = experiment: MTT viability assay, MM cell line panel; format: cell-based; settings: RPMI-LR5 (melphalan resistant), 48 hours
# Procedure: as §1, §2
# OPM-2 = experiment: MTT viability assay, MM cell line panel; format: cell-based; settings: Homo sapiens; OPM-2, MTT, 48 hours
# Procedure: as §1, §2
# U266 = experiment: MTT viability assay, MM cell line panel; format: cell-based; settings: Homo sapiens, U-266, 48 hours
# Procedure: as §1, §2
# RPMI8226 = experiment: MTT viability assay, MM cell line panel; format: cell-based; settings: Homo sapiens, RPMI-8226, 48 hours
# Procedure: as §1, §2
# OPM-1 = experiment: MTT viability assay, MM cell line panel; format: cell-based; settings: Homo sapiens; OPM-1, MTT, 48 hours
# Procedure: as §1, §2
# [3] = Systemic toxicity and body weight in xenografted mice; format: in vivo
# Procedure: (§3) The in vivo efficacy of PM00104 was studied in a model of human plasmocytoma xenografted in CB17-SCID mice. These experiments were performed using the very sensitive cell line MM1S and the less sensitive one OPM-1. Two cohorts of thirty mice were subcutaneously injected with each cell line and mice were randomized into three groups receiving vehicle alone, 0.8 mg/kg of PM00104, or 1 mg/Kg PM00104 intravenously (iv) once weekly for three doses.
# (§4) CB17-SCID mice (The Jackson Laboratory, Bar Harbor, Me., USA) were subcutaneously inoculated into the right flank with 3×10^6 MM1S or OPM1 cells in 100 μL of RPMI-1640 medium and 100 μL of Matrigel (Becton Dickinson). When tumours became palpable, mice received PM00104 or vehicle alone. Treatment with PM00104 was given iv, at doses of 0.8 mg/kg and 1 mg/kg once weekly for three doses. The control group received the vehicle alone (sterile water for injection plus saline).
# MM1S plasmocytomas = experiment: Human plasmocytoma xenograft in CB17-SCID mice (MM1S); format: in vivo; settings: for tumor volume (mean±SD): after 15 days of treatment
# Procedure: as §3, §4
# (§5) Caliper measurements of the tumour diameters were performed every day, and the tumour volume was estimated as the volume of an ellipse using the following formula: V=4/3π×(a/2)×(b/2)^2, where “a” and “b” correspond to the longest and shortest diameter, respectively. Animals were euthanized when their tumours reached 2 cm. Differences in tumour volumes between treated and control groups were evaluated using 1-way analysis of variance and Bonferroni post hoc tests. Survival was estimated from the day of initiation of treatment, and statistical differences were assessed by Kaplan-Meier curves with the Log Rank test. Statistical analyses were performed with the SPSS-15.0 software (SPSS Inc. Chicago, Ill., USA) and statistical significance was defined as p<0.05.
# OPM-1 plasmocytomas = experiment: Human plasmocytoma xenograft in CB17-SCID mice (OPM-1); format: in vivo; settings: for tumor volume (mean±SD): after 14 days of treatment
# Procedure: as §3, §4, §5
# MM1S = experiment: MTT viability assay, MM cell line panel; format: cell-based, human
# Procedure: as §1, §2
# [4] = tested on: BMSCs derived from a MM patient; experiment: MTT cytotoxicity on BMSCs; format: cell-based, human; settings: 48 hours
# Procedure: (§6) FIG. 3. PM00104 overcomes the protective effects of IL-6, IGF-I, and adherence to patient BMSCs. MM1S cells were treated for 48 hours with indicated concentrations of PM00104 in the presence or absence of IL-6 (FIG. 3A), IGF-I (FIG. 3B), or BMSCs derived from a MM patient (FIG. 3C). DNA synthesis was determined by measuring BrdU incorporation during the last 8 hours of 48-hour cultures. Additionally, BMSCs were cultured with different doses of PM00104 for 48 hours and the cytotoxicity was analyzed by MTT assay (FIG. 3D). Data is presented as the mean±SD of quadruplicates.
# MM1S cells [5] = experiment: BrdU uptake of MM1S cells with IL-6, IGF-I or co-cultured BMSCs; format: cell-based, human; settings: 48 hours
# Procedure: as §6
# The presence of the BM microenvironment confers protection to MM through their adhesion or through the production of several cytokines such as IL-6 or IGF-I. In order to test whether PM00104 was able to inhibit this protective effect of the BM microenvironment, MM1S cells were incubated with IL-6 (1 nM) or IGF-I (10 nM), or co-cultured with BM stromal cells (BMSCs) for 48 hours, and then treated with increasing concentrations of PM00104. BMSCs were plated in 96-well culture dishes (50,000 cells/well) and allowed to reach confluence during 48 hours. Then, 30,000 myeloma cells were plated in RPMI 1640 containing 10% serum. Proliferation of MM cells was then assessed by Bromodeoxyuridine (BrdU) uptake (Maiso P et al. Br. J. Haematol. 2008, 141, 470-482). BrdU was added for the last 8 hours, and BrdU uptake was measured using a commercial kit (Roche Biochemicals), following the manufacturer's instructions.
# [6] = 0.8 mg/kg iv once weekly for three doses
# [7] = 1 mg/kg iv once weekly for three doses
# [8] = OPM-1, 0.8 mg/kg iv once weekly for three doses
# [9] = OPM-1, 1 mg/kg iv once weekly for three doses
smiles,measurement,setting,value
COc1c(C)cc2c(c1O)[C@@H]1[C@@H]3Cc4c(OC(C)=O)c(C)c5c(c4[C@H](CNC(=O)/C=C/c4cccc(C(F)(F)F)c4)N3[C@@H](O)[C@H](C2)N1C)OCO5 [PM00104],effect of combination on cell viability,MM1S cells [1]; with bortezomib,promising additive/synergistic results
same,efficacy of triple combination vs respective double combinations,MM1S cells [1]; with dexamethasone + doxorubicin,significantly improved the efficacy
same,efficacy of triple combination vs respective double combinations,MM1S cells [1]; with dexamethasone + lenalidomide,significantly improved the efficacy
same,efficacy of triple combination vs respective double combinations,MM1S cells [1]; with dexamethasone + melphalan,significantly improved the efficacy
same,combination index (CI),MM1S cells [1]; with dexamethasone,0.78
same,combination index (CI),MM1S cells [1]; with doxorubicin,0.64
same,combination index (CI),MM1S cells [1]; with lenalidomide,0.55
same,combination index (CI),MM1S cells [1]; with melphalan,0.48
same,sensitivity of patient samples (Annexin V positive cells),"[2]; four out of six samples (patients 1, 6, 3 and 5)",very sensitive to low concentrations
same,sensitivity of patient samples (Annexin V positive cells),"[2]; patient 4, secondary plasma cell leukemia",intermediate sensitivity
same,IC50 at 48 hours,MM144,picomolar concentrations
same,pIC50,U266-LR7,8.70 to 9.00
same,IC50 at 48 hours,MM1R,picomolar concentrations
same,pIC50,RPMI-LR5,8.70 to 9.00
same,pIC50,OPM-2,8.70 to 9.00
same,pIC50,U266,8.70 to 9.00
same,pIC50,RPMI8226,8.70 to 9.00
same,pIC50,OPM-1,8.70 to 9.00
same,systemic toxicity,[3]; 0.8 and 1 mg/kg iv once weekly for three doses,no significant systemic toxicity
same,weight loss (of body weight as compared to the controls),[3]; highest of PM00104 doses,around 10%
same,median±SE survival,MM1S plasmocytomas; [6],52 ± 4.8 days
same,tumor volume (mean±SD),MM1S plasmocytomas; [6],420±242 mm^3
same,median±SE survival,MM1S plasmocytomas; [7],59 ± 5.5 days
same,tumor volume (mean±SD),MM1S plasmocytomas; [7],176±78 mm^3
same,median±SE survival,OPM-1 plasmocytomas; [8],21 ± 0.8 days
same,tumor volume (mean±SD),OPM-1 plasmocytomas; [8],1879±731 mm^3
same,median±SE survival,OPM-1 plasmocytomas; [9],23 ± 1.1 days
same,tumor volume (mean±SD),OPM-1 plasmocytomas; [9],1042±596 mm^3
same,IC50 at 48 hours,MM1S,picomolar concentrations
same,cytotoxic effect on BMSCs,[4],very resistant
same,effect on protective effect due to adhesion of plasma cells to BMSCs (BrdU uptake),MM1S cells [5]; MM1S co-cultured with BMSCs,largely inhibited
same,effect on proliferative advantage conferred by IGF-I (BrdU uptake),"MM1S cells [5]; MM1S, IGF-I 10 nM",completely abrogated
same,effect on proliferative advantage conferred by IL-6 (BrdU uptake),"MM1S cells [5]; MM1S, IL-6 1 nM",completely abrogated

# — patent US8435992B2, “Multiple myeloma treatments” (Pharma Mar S.A., priority 2008, dated 2013)
